Data from PubChem BioAssay (NCI).
“And” between values parts separate entries of the source, which are not always exact repeats. Equal entries are not always repeated.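 The compound was tested at five concentrations on cells cultured in 96-well plates, with a 48-hour exposure period. GI50 = concentration required for 50% inhibition of growth. TGI is the concentration that stops growth completely.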

Columns and labels:
Assay in all cases: inhibition of tumour cell growth, NCI panel, 48 h
PC-3 prostate = tested on: PC-3 prostate
NCI/ADR-RES ovarian = tested on: NCI/ADR-RES ovarian
SF-539 CNS = tested on: SF-539 CNS
OVCAR-4 ovarian = tested on: OVCAR-4 ovarian
CCRF-CEM leukemia = tested on: CCRF-CEM leukemia
COLO 205 colon = tested on: COLO 205 colon
U251 CNS = tested on: U251 CNS
MDA-MB-435 = tested on: MDA-MB-435
HCT-15 colon = tested on: HCT-15 colon
OVCAR-5 ovarian = tested on: OVCAR-5 ovarian

Structure (SMILES) | GI50 (PC-3 prostate) | TGI (PC-3 prostate) | GI50 (NCI/ADR-RES ovarian) | TGI (NCI/ADR-RES ovarian) | GI50 (SF-539 CNS) | TGI (SF-539 CNS) | GI50 (OVCAR-4 ovarian) | TGI (OVCAR-4 ovarian) | GI50 (CCRF-CEM leukemia) [µM] | TGI (CCRF-CEM leukemia) [µM] | GI50 (COLO 205 colon) | TGI (COLO 205 colon) | GI50 (U251 CNS) | TGI (U251 CNS) | GI50 (MDA-MB-435) | TGI (MDA-MB-435) | GI50 (HCT-15 colon) | TGI (HCT-15 colon) | GI50 (OVCAR-5 ovarian) | TGI (OVCAR-5 ovarian)
Brc1c[n+](Cc2ccc3ccccc3c2)cn1Cc1ccc2ccccc2c1 | 1.54 µM | 3.62 µM | > 100 µM | > 100 µM | 1.56 µM | 3.04 µM | 1.32 µM | 2.76 µM | 1.69 | 5.04 | 1.31 µM | 3.16 µM | 1.67 µM | 3.51 µM | 1.69 µM | 3.22 µM | 11.5 µM | 25.7 µM | 2.13 µM | 8.71 µM
O=C1Nc2ccc(F)c3c(OCCO)cc(-c4ccc[nH]4)c1c23 | 1.32 µM | 10.3 µM | 4.01 µM | 20.1 µM | 2.19 µM | 6.12 µM | 1.44 µM | 12.1 µM | 0.99 | 11.1 | 1.33 µM | 5.79 µM | 0.9 µM | 6.3 µM | 1.46 µM | 14.1 µM | 0.957 µM | 7.87 µM | 2.35 µM | 10 µM
COc1ccccc1-c1cc2c3c(nc4ccccc42)C(=O)c2cccnc2-c3n1 | 14.9 µM | 38.2 µM | 7.11 µM | 32.6 µM | 14.8 µM | 35.4 µM | 13.5 µM | 38.7 µM | 4.94 | > 100 | 20.9 µM | 55.1 µM | 3.77 µM | 11.4 µM | 12.5 µM | 33.3 µM | 3.55 µM | 8.62 µM | 15 µM | 34 µM
OCCN1CCN(CCCN2c3ccccc3Sc3ccc(C(F)(F)F)cc32)CC1 | 1.97 µM and 8.77 µM and 10.3 µM | 8.14 µM and 21.6 µM and 23 µM | 3.28 µM and 10.8 µM and 9.73 µM | 10.4 µM and 23.4 µM and 23.5 µM | 4.88 µM and 10.8 µM and 9.77 µM | 11.3 µM and 26.9 µM and 23.6 µM | 5.29 µM and 10.8 µM and 8.5 µM | 11.2 µM and 23.1 µM and 20.9 µM | 2.59 | 9.67 | 0.795 µM and 2.17 µM and 1.93 µM | 1.53 µM and 4.46 µM and 3.59 µM | 1.45 µM and 5.19 µM and 3.66 µM | 5.44 µM and 18.4 µM and 14.5 µM | 1.14 µM and 3.54 µM and 2.44 µM | 3 µM and 14 µM and 7.42 µM | 1.97 µM and 4.22 µM and 3.7 µM | 6.88 µM and 18.3 µM and 15 µM | 5.68 µM and 11.2 µM and 11.5 µM | 12.2 µM and 25.3 µM and 25.1 µM
COc1ccc2c(c1)C(=O)c1c-2c(NCCCN(C)C)nc2ccccc12 | 3.53 µM | 14.2 µM | 4.03 µM | 19.4 µM | 10.8 µM | 24.6 µM | 0.898 µM | 16.4 µM | 1.48 | 3.47 | 5.23 µM | 18.8 µM | 1.98 µM | 4.42 µM | 4.05 µM | 15.4 µM | 1.42 µM | 3.2 µM | 10.2 µM | 21.9 µM
COc1ccc(C(CC(=O)c2ccccc2)C(C(=O)c2ccccc2)C(c2ccc(OC)cc2)C2C(=O)NC(=O)NC2=O)cc1 (stereo unspecified) | 7.31 µM | > 100 µM | 22.2 µM | 63.7 µM | 17.8 µM | 63.2 µM | 26 µM | > 100 µM | 12.9 | > 100 | 3.43 µM | 19.1 µM | 10.7 µM | 51.3 µM | 19.6 µM | > 100 µM | 21.9 µM | > 100 µM | 17.4 µM | 56.8 µM
Cc1c(Cl)cccc1NC(=O)CC1Sc2ccccc2NC1=O (stereo unspecified) | – | > 86.5 µM | – | 58.9 µM | – | 45.1 µM and 36.2 µM | – | 40 µM and 40.4 µM | – | > 100 | – | > 100 µM | – | 34.9 µM and 33.6 µM | – | 9.79 µM | 8.53 µM and 41.9 µM | > 100 µM | – | > 100 µM
O=C1Nc2ccc(Cl)cc2/C1=C\c1c(-c2ccc(F)cc2)nc2ccccn12 | 2.43 µM | 8.36 µM | 2.3 µM | 7.06 µM | 2.09 µM | 5 µM | 2.3 µM | 7.23 µM | 2.31 | 7.24 | 4.03 µM | 13.6 µM | 2.05 µM | 5.13 µM | 1.99 µM | 5.03 µM | 3.15 µM | 16.2 µM | 2.21 µM | 6.72 µM
COc1ccc2c(c1)O/C(=C\c1cccc(OCC(=O)Nc3nc4ccccc4s3)c1)C2=O | 8.46 µM | > 100 µM | 47 µM | > 100 µM | 24.7 µM | > 84.5 µM | 22.3 µM | > 100 µM | 0.419 | 1.25 | > 100 µM | > 100 µM | 12.6 µM | 53.3 µM | 14.2 µM | > 100 µM | 13.9 µM | > 100 µM | > 84.3 µM | > 100 µM
